{
  "source": "paper PMC11946789",
  "about": "“Two Amino Acid Substitutions Improve the Pharmacological Profile of the Snake Venom Peptide Mambalgin” (Toxins, 2025)",
  "target": "T1, homomeric rat ASIC1b (rASIC1b) (Rattus norvegicus, UniProt P55926)",
  "T1 construct": "expressed in transfected cells; host or cells: Xenopus laevis oocytes, mRNA microinjected",
  "T1 sequence (P55926 1-559 isoform P55926-3)": "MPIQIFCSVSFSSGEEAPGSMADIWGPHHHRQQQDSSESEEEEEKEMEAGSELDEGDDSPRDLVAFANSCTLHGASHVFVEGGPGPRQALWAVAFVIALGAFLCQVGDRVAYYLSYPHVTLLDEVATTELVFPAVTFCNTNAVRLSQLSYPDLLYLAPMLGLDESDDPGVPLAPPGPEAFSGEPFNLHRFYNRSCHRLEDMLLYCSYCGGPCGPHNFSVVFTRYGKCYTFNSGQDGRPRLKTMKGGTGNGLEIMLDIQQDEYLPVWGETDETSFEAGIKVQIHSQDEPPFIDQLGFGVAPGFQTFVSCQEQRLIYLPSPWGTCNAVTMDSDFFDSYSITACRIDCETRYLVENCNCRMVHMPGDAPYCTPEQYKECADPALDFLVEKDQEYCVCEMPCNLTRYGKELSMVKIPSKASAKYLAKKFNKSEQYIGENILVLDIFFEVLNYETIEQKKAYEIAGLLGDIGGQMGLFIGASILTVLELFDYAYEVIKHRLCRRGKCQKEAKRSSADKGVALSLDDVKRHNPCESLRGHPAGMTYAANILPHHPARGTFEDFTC",
  "assay": "TEVC recordings, homomeric rASIC1b",
  "assay_type": "cell-based",
  "source_text": "Figure 4 The inhibitory effect of Mamb-AL on other ASIC1-containing channels exceeds that of Mamb. (A,C) Representative current traces showing the effects of various concentrations of Mamb (left panels) and Mamb-AL (right panels) on homomeric rat ASIC1b (rASIC1b) (A) and heteromeric rat ASIC1a/3 (rASIC1a/3) channels (C). Currents were evoked by a pH 5.5 stimulus following a conditioning pH of 7.4, with peptides applied for 30 s prior to the pH stimulus. (B) Dose–response curves for the inhibitory effects of Mamb and Mamb-AL on rASIC1b. Each data point represents measurements from 5 to 7 cells. (D) Bar graph quantifying the inhibitory effects of Mamb and Mamb-AL on rASIC1a/3, shown as a percentage of the corresponding control currents (n = 5). Data are presented as mean ± SEM; * p< 0.05, unpaired t-test. […] Data are shown as mean ± SEM; ns indicates no significant difference vs. control (dotted horizontal line), paired t-test. […]\nWhole-cell ASIC currents were measured using the two-electrode voltage clamp (TEVC) method with a GeneClamp 500 amplifier (Axon Instruments, Union City, NJ, USA). […]\nElectrophysiological and behavioral data were analyzed using OriginPro 8.6.0 (OriginLab, Washington, DC, USA). […] Statistical significance between the Mamb and Mamb-AL groups was determined using an unpaired t-test. […]",
  "note": "Entries after “also recorded” stand apart in the source; their conditions may differ. Bridges are numbered along the chain shown (N, C = ends). Where no end group is shown, it is not given here.",
  "data": [
    {"sequence": "LKCYQHGKVVTCHRDAKFCYHNTGLPFRNLKLILQGCSSSCSETENNKCCSTDRCNK (disulfide 3-19, 12-37, 41-49, 50-55 (inferred)) [Mamb-AL]", "values": [
      {"measurement": "greater potency / inhibition of rASIC1b", "setting": "compared with Mamb", "value": "five-fold; also recorded: five times greater potency"},
      {"measurement": "IC50", "setting": "pH stimulus 5.5, conditioning pH 7.4, peptide applied 30 s before stimulus, Xenopus laevis oocytes, mean ± SEM, 5 to 7 cells", "value": "22 ± 1", "unit": "nM"}
    ]}
  ]
}
